From patent publication US8598344B2, “CDKI pathway inhibitors and uses thereof” (Senex Biotechnology, priority 2009, dated 2013)
Read-outs that look alike come from different tables or passages of the source.

Tests used:
[1] = tested on: induction of transcription by p21 (CDKI pathway, CMV promoter-GFP) in HT1080 fibrosarcoma cells; assay: Cellular assay for CDKI pathway inhibition: CMV-GFP induction by IPTG-inducible p21 in HT1080 reporter cells; format: cell-based, human
Experimental: Briefly, the reporter cell line described in the above-referenced application, which carries IPTG (isopropyl-β-thio-galactoside)-inducible p21 gene together with a p21-inducible promoter driving the expression of Green Fluorescent Protein (GFP) was plated in 96-well plates, at 2000 cells per well for the no-IPTG arm of the assay and at 5000 cells per well for the IPTG arm of the assay. To induce the maximal levels of p21, IPTG was added to 50 μM concentration. Serial 2-fold dilutions of the tested compounds were added in quadruplicates to wells with and without IPTG, ˜10 min after IPTG addition.
This assay is based on the induction of green fluorescent protein (GFP) expression from the cytomegalovirus (CMV) promoter in human HT1080 fibrosarcoma cells that express CDKI p21 from an isopropyl-(3-thio-galactoside (IPTG)-inducible promoter. The compound activity as a CDKI pathway inhibitor is measured by its ability to prevent the stimulation of the CMV promoter upon the addition of p21-inducing IPTG. CMV promoter activity is measured by the ratio of GFP fluorescence to the relative cell number, as determined by staining cellular DNA with Hoechst 33342. This assay was conducted in two modes. […]

[2] = biological target: T1, CDK19 (Homo sapiens, UniProt Q9BWU1); assay: KinomeScan competition binding assay; settings: read-out: CDK19 inhibition (Kd)
T1 construct: purchased KinomeScan, a division of Ambit Biosciences
Description: (§1) This similarity led us to test SNX14 for the ability to inhibit 285 kinases, using the services of KinaseProfiler of Millipore Corporation (285 kinases). […] The KINOMEscan assay has been described in detail in Fabian et al., Nat. Biotechnol. 23: 329 (2005) and Karaman et al., Nat. Biotechnol. 26: 127 (2008).
(§2) The KinomeScan assay is based on a competition binding assay that quantitatively measures the ability of a compound to compete with an immobilized, ATP site directed ligand. The assay is performed by combining three components: DNA-tagged kinase; immobilized ligand; and a test compound. The ability of the test compound to compete with the immobilized ligand is measured via quantitative PCR of the DNA tag. […] The CDKs tested by Millipore for inhibition with SNX14 included CDK1, CDK2, CDK3, CDK5, CDK7 and CDK9; none of these were inhibited to less than 49 percent of control (POC) activity. The CDKs tested by KinomeScan for the effect of Compound 1 included CDK2, CDK3, CDK4, CDK5, CDK7, CDK8, CDK9 and CDK19; aside from CDK8 and CDK19, the strongest inhibited CDK was CDK7 (33% POC binding). To determine the inhibition of which kinases correlates with the biological activity of SNX2-class compounds, we tested eight additional compounds of the SNX2 family, which gave different IC50 values in the cellular assays, for the ability to affect 24 kinases that were most susceptible to compound 1, through the services of KinomeScan. […] We have also determined the binding constant (Kd) for SNX14, compound 1, compound 20, compound 26, compound 43 and compound 14 in kinase assays for CDK8 and CDK19 (Table 1).

[3] = biological target: T2, CDK8 (Homo sapiens, UniProt P49336); assay: KinomeScan competition binding assay; settings: read-out: CDK8 inhibition (Kd)
T2 construct: purchased KinomeScan, a division of Ambit Biosciences
Description: as §1, §2

[4] = biological target: T3, CDK1 (Homo sapiens, UniProt P06493); assay: KinaseProfiler (Millipore) kinase inhibition; format: biochemical; settings: 10 μM
T3 construct: purchased KinaseProfiler of Millipore Corporation
Description: as §1, §2

[5] = biological target: T4, CDK2 (Homo sapiens, UniProt P24941); assay: KinaseProfiler (Millipore) kinase inhibition; format: biochemical; settings: 10 μM
T4 construct: purchased KinaseProfiler of Millipore Corporation
Description: as §1, §2

[6] = biological target: T5, CDK3 (Homo sapiens, UniProt Q00526); assay: KinaseProfiler (Millipore) kinase inhibition; format: biochemical; settings: 10 μM
T5 construct: purchased KinaseProfiler of Millipore Corporation
Description: as §1, §2

[7] = biological target: T6, CDK5 (Homo sapiens, UniProt Q00535); assay: KinaseProfiler (Millipore) kinase inhibition; format: biochemical; settings: 10 μM
T6 construct: purchased KinaseProfiler of Millipore Corporation
Description: as §1, §2

[8] = biological target: T7, CDK9 (Homo sapiens, UniProt P50750); assay: KinaseProfiler (Millipore) kinase inhibition; format: biochemical; settings: 10 μM
T7 construct: purchased KinaseProfiler of Millipore Corporation
Description: as §1, §2

[9] = biological target: CDK7 (Homo sapiens, UniProt P50613); assay: KinaseProfiler (Millipore) kinase inhibition; format: biochemical; set-up: purchased KinaseProfiler of Millipore Corporation; settings: 10 μM
Description: as §1
as §2, with “binding).” for “binding). To determine the inhibition of which kinases correlates with the biological activity of SNX2-class compounds, we tested eight additional compounds of the SNX2 family, which gave different IC50 values in the cellular assays, for the ability to affect 24 kinases that were most susceptible to compound 1, through the services of KinomeScan.”

[10] = tested on: human umbilical vein endothelial cells (HUVECs); settings: Aoki et al., 2007; read-out: IC50, proliferation of HUVECs; cited from earlier work
[11] = tested on: several other types of human cells; settings: Aoki et al., 2007; read-out: antiproliferative activity against several other types of human cells; cited from earlier work
[12] = biological target: T1, CDK19; settings: cited from earlier work
[13] = biological target: T8, CLK4 (Homo sapiens, UniProt Q9HAZ1); settings: 10 μM; data from Cee et al. (2009); cited from earlier work
T8 construct: purchased KinomeScan, a division of Ambit Biosciences

[14] = biological target: T9, CIT (Homo sapiens, UniProt O14578); settings: 10 μM; data from Cee et al. (2009); cited from earlier work
T9 construct: purchased KinomeScan, a division of Ambit Biosciences

[15] = biological target: T10, ROCK2 (Homo sapiens, UniProt O75116); settings: cited from earlier work
T10 construct: purchased KinomeScan, a division of Ambit Biosciences

[16] = biological target: T11, LTK (Homo sapiens, UniProt P29376); settings: 10 μM; data from Cee et al. (2009); cited from earlier work
T11 construct: purchased KinomeScan, a division of Ambit Biosciences

[17] = biological target: T12, ALK (Homo sapiens, UniProt Q9UM73); settings: 10 μM; data from Cee et al. (2009); cited from earlier work
T12 construct: purchased KinomeScan, a division of Ambit Biosciences

[18] = biological target: T13, PIM2 (Homo sapiens, UniProt Q9P1W9); settings: 10 μM; data from Cee et al. (2009); cited from earlier work
T13 construct: purchased KinomeScan, a division of Ambit Biosciences

[19] = biological target: T14, PKACa (Homo sapiens, UniProt P17612); settings: 10 μM; data from Cee et al. (2009); cited from earlier work
T14 construct: purchased KinomeScan, a division of Ambit Biosciences

[20] = biological target: T15, PKACb (Homo sapiens, UniProt P22694); settings: 10 μM; data from Cee et al. (2009); cited from earlier work
T15 construct: purchased KinomeScan, a division of Ambit Biosciences

[21] = biological target: T16, MET (Homo sapiens, UniProt P08581); settings: 10 μM; data from Cee et al. (2009); cited from earlier work
T16 construct: purchased KinomeScan, a division of Ambit Biosciences

[22] = biological target: T17, PRKG2 (Homo sapiens, UniProt Q13237); settings: 10 μM; data from Cee et al. (2009); cited from earlier work
T17 construct: purchased KinomeScan, a division of Ambit Biosciences

[23] = biological target: T18, RIOK2 (Homo sapiens, UniProt Q9BVS4); settings: 10 μM; data from Cee et al. (2009); cited from earlier work
T18 construct: purchased KinomeScan, a division of Ambit Biosciences

[24] = biological target: T19, ROCK1 (Homo sapiens, UniProt Q13464); settings: cited from earlier work
T19 construct: purchased KinomeScan, a division of Ambit Biosciences

[25] = biological target: T20, ROS1 (Homo sapiens, UniProt P08922); settings: 10 μM; data from Cee et al. (2009); cited from earlier work
T20 construct: purchased KinomeScan, a division of Ambit Biosciences

[26] = biological target: T21, JNK1 (Homo sapiens, UniProt P45983); settings: 10 μM; data from Cee et al. (2009); cited from earlier work
T21 construct: purchased KinomeScan, a division of Ambit Biosciences

[27] = 10 μM, data from Cee et al. (2009)

T1 sequence (Q9BWU1 whole entry): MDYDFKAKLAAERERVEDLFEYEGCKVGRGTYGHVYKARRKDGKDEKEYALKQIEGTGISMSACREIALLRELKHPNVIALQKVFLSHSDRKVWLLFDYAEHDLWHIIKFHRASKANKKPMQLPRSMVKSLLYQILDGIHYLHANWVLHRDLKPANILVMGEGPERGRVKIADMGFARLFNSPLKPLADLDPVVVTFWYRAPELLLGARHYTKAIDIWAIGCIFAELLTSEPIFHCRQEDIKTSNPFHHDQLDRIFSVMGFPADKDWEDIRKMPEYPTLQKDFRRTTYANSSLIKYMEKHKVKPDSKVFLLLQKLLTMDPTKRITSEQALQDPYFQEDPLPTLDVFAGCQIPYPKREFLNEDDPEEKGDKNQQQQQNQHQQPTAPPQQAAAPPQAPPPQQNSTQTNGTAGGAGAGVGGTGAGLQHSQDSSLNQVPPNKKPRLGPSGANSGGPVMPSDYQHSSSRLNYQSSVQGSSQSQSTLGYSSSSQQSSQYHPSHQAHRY
T19 sequence (Q13464 whole entry): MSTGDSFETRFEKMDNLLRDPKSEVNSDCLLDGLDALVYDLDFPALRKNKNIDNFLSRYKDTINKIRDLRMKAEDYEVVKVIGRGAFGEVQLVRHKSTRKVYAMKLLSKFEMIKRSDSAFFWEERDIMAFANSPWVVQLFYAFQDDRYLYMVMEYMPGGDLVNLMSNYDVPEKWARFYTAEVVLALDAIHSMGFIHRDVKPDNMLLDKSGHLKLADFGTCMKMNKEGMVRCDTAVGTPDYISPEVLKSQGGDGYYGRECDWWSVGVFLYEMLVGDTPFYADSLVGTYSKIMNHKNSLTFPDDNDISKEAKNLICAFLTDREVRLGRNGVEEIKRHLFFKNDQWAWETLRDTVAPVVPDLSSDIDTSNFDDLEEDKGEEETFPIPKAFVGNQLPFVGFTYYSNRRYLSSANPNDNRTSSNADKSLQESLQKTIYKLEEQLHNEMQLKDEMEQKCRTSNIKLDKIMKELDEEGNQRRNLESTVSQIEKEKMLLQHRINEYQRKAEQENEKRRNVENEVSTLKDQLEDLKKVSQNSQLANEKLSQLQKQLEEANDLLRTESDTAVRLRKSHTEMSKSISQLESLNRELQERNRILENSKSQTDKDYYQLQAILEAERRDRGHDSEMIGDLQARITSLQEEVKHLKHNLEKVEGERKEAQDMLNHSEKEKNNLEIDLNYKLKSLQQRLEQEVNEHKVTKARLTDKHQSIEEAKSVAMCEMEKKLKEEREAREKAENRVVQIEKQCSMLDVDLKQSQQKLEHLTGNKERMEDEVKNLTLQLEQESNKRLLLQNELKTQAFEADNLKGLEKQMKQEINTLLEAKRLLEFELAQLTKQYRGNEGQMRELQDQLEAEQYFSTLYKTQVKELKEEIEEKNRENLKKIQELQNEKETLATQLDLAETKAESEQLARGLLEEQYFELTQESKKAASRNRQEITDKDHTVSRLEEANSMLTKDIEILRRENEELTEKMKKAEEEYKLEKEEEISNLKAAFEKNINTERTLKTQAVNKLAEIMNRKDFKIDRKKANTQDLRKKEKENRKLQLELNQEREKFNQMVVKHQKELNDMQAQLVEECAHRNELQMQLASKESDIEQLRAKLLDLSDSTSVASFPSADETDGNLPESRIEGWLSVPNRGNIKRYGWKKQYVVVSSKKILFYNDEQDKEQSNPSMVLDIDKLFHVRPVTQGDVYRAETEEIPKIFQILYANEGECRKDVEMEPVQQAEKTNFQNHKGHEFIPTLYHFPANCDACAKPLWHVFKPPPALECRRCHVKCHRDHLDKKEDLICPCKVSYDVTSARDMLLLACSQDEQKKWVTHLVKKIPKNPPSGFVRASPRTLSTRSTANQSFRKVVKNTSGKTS
T10 sequence (O75116 whole entry): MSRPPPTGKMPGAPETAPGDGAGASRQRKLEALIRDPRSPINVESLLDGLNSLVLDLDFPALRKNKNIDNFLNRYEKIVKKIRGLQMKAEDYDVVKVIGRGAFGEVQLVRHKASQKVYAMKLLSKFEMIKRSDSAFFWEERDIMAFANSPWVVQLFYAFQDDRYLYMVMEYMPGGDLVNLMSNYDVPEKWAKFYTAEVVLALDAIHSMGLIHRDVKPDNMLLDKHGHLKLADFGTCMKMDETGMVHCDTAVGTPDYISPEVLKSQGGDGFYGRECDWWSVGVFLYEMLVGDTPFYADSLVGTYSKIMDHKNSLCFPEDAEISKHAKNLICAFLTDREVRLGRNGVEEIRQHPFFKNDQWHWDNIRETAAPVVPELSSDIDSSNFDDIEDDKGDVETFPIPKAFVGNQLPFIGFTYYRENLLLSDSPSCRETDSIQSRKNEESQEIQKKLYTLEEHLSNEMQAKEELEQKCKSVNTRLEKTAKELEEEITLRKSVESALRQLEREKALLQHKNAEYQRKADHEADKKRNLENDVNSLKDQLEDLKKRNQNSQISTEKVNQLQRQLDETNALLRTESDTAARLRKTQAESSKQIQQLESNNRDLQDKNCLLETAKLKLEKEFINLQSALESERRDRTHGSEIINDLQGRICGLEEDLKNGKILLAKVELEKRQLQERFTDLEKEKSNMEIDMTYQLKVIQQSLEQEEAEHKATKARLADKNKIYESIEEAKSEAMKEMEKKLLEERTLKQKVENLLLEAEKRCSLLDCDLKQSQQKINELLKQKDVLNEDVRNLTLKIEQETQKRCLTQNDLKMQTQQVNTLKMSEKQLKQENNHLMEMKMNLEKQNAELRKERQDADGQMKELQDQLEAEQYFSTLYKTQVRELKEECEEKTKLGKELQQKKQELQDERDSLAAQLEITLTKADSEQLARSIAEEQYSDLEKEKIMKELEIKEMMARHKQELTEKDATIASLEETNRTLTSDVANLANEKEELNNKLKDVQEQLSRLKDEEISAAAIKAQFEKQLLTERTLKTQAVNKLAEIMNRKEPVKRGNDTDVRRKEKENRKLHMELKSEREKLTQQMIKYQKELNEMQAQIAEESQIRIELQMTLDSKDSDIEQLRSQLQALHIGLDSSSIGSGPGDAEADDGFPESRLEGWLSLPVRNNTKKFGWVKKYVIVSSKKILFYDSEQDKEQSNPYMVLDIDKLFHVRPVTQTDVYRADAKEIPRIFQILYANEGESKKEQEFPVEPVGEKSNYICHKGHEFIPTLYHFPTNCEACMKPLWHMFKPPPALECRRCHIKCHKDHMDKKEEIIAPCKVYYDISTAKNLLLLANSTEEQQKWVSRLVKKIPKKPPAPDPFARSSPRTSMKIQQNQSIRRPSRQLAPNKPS
T2 sequence (P49336 whole entry): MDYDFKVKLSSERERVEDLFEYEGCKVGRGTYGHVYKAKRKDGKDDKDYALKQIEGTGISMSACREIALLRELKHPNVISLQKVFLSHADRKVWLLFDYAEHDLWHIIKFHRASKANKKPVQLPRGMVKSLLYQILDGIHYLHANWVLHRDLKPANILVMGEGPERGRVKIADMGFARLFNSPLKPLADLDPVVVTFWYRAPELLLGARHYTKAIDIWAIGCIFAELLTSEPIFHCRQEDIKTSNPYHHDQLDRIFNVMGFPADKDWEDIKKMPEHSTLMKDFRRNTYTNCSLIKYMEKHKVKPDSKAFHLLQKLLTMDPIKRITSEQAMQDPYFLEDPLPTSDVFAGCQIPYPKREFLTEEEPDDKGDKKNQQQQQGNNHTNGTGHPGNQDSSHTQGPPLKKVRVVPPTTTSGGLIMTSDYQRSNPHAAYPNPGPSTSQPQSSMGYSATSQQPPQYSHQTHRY
T7 sequence (P50750 whole entry): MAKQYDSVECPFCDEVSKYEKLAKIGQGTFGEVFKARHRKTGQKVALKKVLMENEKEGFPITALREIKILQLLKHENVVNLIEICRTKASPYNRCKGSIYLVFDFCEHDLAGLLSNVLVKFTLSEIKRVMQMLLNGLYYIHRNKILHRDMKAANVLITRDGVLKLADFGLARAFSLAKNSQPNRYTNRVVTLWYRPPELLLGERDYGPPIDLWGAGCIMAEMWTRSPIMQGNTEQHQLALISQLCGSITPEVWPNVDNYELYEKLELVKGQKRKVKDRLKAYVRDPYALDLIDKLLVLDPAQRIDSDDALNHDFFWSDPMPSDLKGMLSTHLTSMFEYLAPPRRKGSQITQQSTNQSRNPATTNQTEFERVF
T7 sequence (O60563 whole entry partner): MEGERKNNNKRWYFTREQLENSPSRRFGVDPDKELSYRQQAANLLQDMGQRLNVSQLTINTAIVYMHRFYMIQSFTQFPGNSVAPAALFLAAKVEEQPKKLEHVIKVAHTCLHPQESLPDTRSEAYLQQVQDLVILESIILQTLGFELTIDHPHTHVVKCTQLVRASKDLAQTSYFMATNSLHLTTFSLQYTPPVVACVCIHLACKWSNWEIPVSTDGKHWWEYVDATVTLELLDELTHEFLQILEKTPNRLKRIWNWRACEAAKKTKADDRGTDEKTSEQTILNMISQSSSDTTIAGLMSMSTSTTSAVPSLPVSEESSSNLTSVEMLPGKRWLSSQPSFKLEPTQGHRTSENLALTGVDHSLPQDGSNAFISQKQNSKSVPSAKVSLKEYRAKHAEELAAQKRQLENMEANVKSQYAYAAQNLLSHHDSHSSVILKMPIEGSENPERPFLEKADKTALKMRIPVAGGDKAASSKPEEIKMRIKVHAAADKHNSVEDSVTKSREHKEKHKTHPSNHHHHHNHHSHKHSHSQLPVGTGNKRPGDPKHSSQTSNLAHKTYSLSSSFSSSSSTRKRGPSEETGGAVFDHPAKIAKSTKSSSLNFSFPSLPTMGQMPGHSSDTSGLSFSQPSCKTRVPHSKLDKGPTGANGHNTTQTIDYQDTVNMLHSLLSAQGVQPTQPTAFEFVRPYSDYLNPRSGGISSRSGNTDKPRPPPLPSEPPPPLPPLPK

`CC(C)Nc1ncnc2ccc(I)cc12` [SNX14] gave an IC50 ([1]; Table 1, IC50 calculated on the basis of the maximal inhibition produced by the highest doses, IPTG mode (50 μM or 2 μM) not stated, read-out: Cell-based assay (IC50)) of 6.43 µM, a Kd [2] of 3.8 µM and a Kd [3] of 10 µM. For the same compound, the “percent of control (POC) activity, CDK1” value [4] was ≥ 49% of control (POC), the “percent of control (POC) activity, CDK2” value [5] was ≥ 49% of control (POC) and the “percent of control (POC) activity, CDK3” value [6] was ≥ 49% of control (POC). The “percent of control (POC) activity, CDK5” value [7] was ≥ 49% of control (POC), the “percent of control (POC) activity, CDK9” value [8] was ≥ 49% of control (POC) and the “percent of control (POC) activity, CDK7” value [9] was ≥ 49% of control (POC).

Work on `Ic1ccc2ncnc(NCCc3ccccc3)c2c1` [compound 3] yielded an IC50 ([1]; read-out: IC50, p21 induced by 8 μM IPTG, 8 μM IPTG, 72 hours) of 1.85 µM.

For cortistatin A, the IC50 [10] is given as 0.0018 µM, the IC50 [11] is given as 6 to 7 µM and the “POC, CDK19” value [12, 27] is given as 0.1 POC. The Kd ([12]; Cee et al. (2009)) was 0.01 µM, the “POC, CLK4” value [13] was 26 POC and the “POC, CIT” value [14] was 28 POC. The “POC, ROCK2 (ROCK II)” value [15, 27] was 0 POC, the Kd ([15]; Cee et al. (2009), read-out: Kd ROCK II) was 0.22 µM and the “POC, LTK” value [16] was 2.9 POC. The “POC, ALK” value [17] was 4.4 POC, the “POC, PIM2” value [18] was 4.4 POC and the “POC, PKACa” value [19] was 8.7 POC. The “POC, PKACb” value [20] was 13 POC, the “POC, MET” value [21] was 18 POC and the “POC, PRKG2” value [22] was 21 POC. For the same compound, the “POC, RIOK2” value [23] was 21 POC, the “POC, ROCK1” value [24, 27] was 21 POC and the Kd ([24]; Cee et al. (2009), read-out: Kd ROCK I) was 0.25 µM. The “POC, ROS1” value [25] was 26 POC and the “POC, JNK1” value [26] was 29 POC.

With `COc1cc2ncnc(Nc3ccc(F)c(Cl)c3)c2cc1OCCCN1CCOCC1` [gefitinib, reference compound] the CDKI pathway inhibition [1] was “inactive”.
